Holding throughout (type): cell-based
In one assay the test system is HTB 16. The experiment in a line: Antiproliferative activity in human tumor cell line HTB 16. To be noted: Homo sapiens; ovarian tumor line; PROTOCOL 1 and PROTOCOL 2. How it is done:
(§1) PROTOCOL 1, 2, and 3 are described in greater detail hereinbelow. In general, according to PROTOCOLS 1 and 2, the target ABAE and/or Human Tumor cells are exposed to the compound of Formula I for 48 hours. PROTOCOL 3 exposes ABAE cell to the compound for 4 days. A detailed description of the protocol is as follows:
(§2) Antiproliferative Activity in Human Tumor and Adult Bovine Aortic Endothelial (ABAE) Cell Lines
(§3) The antiproliferative activity of the compounds of Formula I of the present invention is evaluated in a panel comprised of human tumor cell lines and an adult bovine aortic endothelial cell line (ABAE). The human tumor cell lines are from:
(§4) All cell lines are maintained in log phase in RPMI 1640 media, supplemented with 5% fetal calf serum, penicillin/streptomycin and 2 mM L-glutamine. Cultures are renewed after 20 passages with cells from a fresh stock of batch-frozen early passage cells. Cell lines are routinely checked for mycoplasma contamination (Genprobe). In a laminar flow hood, cells (1-5×10^4) are plated into 96-well microtiter plates in a volume of 0.1 ml/well with a bulk microtiter dispenser (Denley). […] At this concentration, dimethylsulfoxide has no effect on cell growth. Compounds are added using a Tomtec dispenser which simultaneously dispenses from one 96-well plate, containing the drug dilutions, to the plates containing the cells. After two days of continuous drug exposure, 50% cold trichloroacetic acid (TCA) is added to 10% final concentration to fix the cells, and after 60 minutes at 4° C., the TCA is aspirated and the plates are washed 5 times with deionized water using a microtiter plate washer. The number of cells on the plate are quantitated using a protein dye-binding assay (Monks et al., 1991). A 0.4% solution of the dye, sulforhodamine B, in glacial acetic acid is added to the plates, and the plates are washed 5 times with 1% glacial acetic acid using the automatic plate washed. The bound stain is solubilized with 0.1 ml of 10 mM Tris base. The optical densities are read from an automatic spectrophotometric plate reader (Dynatech) directly to a main frame computer (VAX 8600).
(§5) Positive controls, that include standard chemotherapeutic drugs (i.e., adriamycin, cisplatin, etc.), are included in every experiment.
(§6) Background optical density measurements (complete media-cells, and complete media+drug-cells) are automatically subtracted from the appropriate control and test wells. Mean values and standard errors are determined from duplicate wells. A measure is also made of the optical density at time when the drugs are added. The number of cells after treatment (P), as % of control, is calculated for every concentration of drug, as follows: [formula] wherein: T is optical density measurement for treated cells after 48 hours;
(§7) C is optical density measurement for untreated cells after 48 hours;
(§8) Co is optical density measurement for cells at the time of drug addition.
(§9) IC50 of growth inhibition is calculated from the sets of P values using the RS-1 data package (BBN Software).
(§10) The antiproliferative activity of the compounds of Formula I is evaluated in a panel comprised of human tumor cell lines and an adult bovine aortic endothelial cell line (ABAE) as listed in PROTOCOL 1. This assay is a modification of PROTOCOL 1. The modifications include:
(§11) 1) each concentration for each compound is tested in a single well;
(§12) 2) compounds are tested at 20, 4, 0.8, 0.16 microgram/ml and additionally in some experiments at 100 and 0.32 microgram/ml;
(§13) 3) samples are pipetted into a 96-well plate for each of the cell lines by a Beckman Biomek 1000 SL robot;
(§14) 4) after fixing with TCA each well is washed with 0.35 ml distilled water twice, not five times;
(§15) 5) after staining with sulforhodamine B each well is washed 3 times, not five times; […]

Another assay relates to A2780/DDP. Put plainly: Antiproliferative activity in human ovarian tumor cell line A2780/DDP. To be noted: Homo sapiens, A2780/DDP, read-out: A2780/DDP/DDP IC50, PROTOCOL 1 and PROTOCOL 2. As for the experimental part: as §1, §2, §3, §4, §5, §6, §7, §8, §9, §10, §11, §12, §13, §14, §15
Assay [1] deals with Adult Bovine Aortic Endothelial (ABAE) cell line. The experiment in a line: Antiproliferative activity in ABAE cells, PROTOCOL 3 (4 days, cell count). To be noted: Bos taurus, 96 h, PROTOCOL 3, FIG. 1, read-out: inhibits 50% of cell growth. How it is done: as §1
Antiproliferative Activity in Adult Bovine Aortic Endothelial (ABAE) Cell Line
ABAE cells are grown in DMEM media (Mediatech, Washington, D.C.) supplemented with 10% calf serum (Hyclone). ABAE cells are plated in 24-well dishes at 8,000 cells/well, followed by the addition of increasing concentrations of 7-[substituted amino]-9-[(substituted glycyl)amido]-6-demethyl-6-deoxytetracyclines. After four days, the cells are detached and counted. […] The growth inhibition (I) as % of control is calculated as follows: [formula] wherein: Nc is the number of cells in untreated wells;
Nt is the number of cells in treated wells;
No is the number of plated cells.
IC50 of growth inhibition is determined from the sets of I values plotted by Kaleidograph software (Abelbeck Software).
In addition FIG. 1, presents the dose response curve of the compound of Example 6 for the above ABAE cell line obtained by PROTOCOL 3.

For a further assay, the system named is A2780S. Put plainly: Antiproliferative activity in human ovarian tumor cell line A2780S. Particulars: Homo sapiens, A2780S, PROTOCOL 1 and PROTOCOL 2. As for the experimental part: as §1, §2, §3, §4, §5, §6, §7, §8, §9, §10, §11, §12, §13, §14, §15
Another assay relates to Human Tumor Cell lines. The experiment in a line: Antiproliferative activity in panel of human tumor cell lines. Particulars: average over the tested human tumor cell lines. As for the experimental part:
as §1, §2, §3
(§16) 2) Colon tumors: MIP, CaCo2, and SW620.
as §4, §5, §6, §7, §8, §9, §10, §11, §12, §13, §14, §15

The next assay concerns MIP. Put plainly: Antiproliferative activity in human colon tumor cell line MIP. Particulars: Homo sapiens, PROTOCOL 1 and PROTOCOL 2. As for the experimental part:
as §1, §2, §3, §16, §4, §5, §6, §7, §8, §9, §10, §11, §12, §13, §14, §15

Structures are written as SMILES. Values after ≈ are worked out from the molar mass of the structure shown.

Take `CN(C)c1ccc(O)c2c1C[C@H]1C[C@H]3[C@H](N(C)C)C(O)=C(C(N)=O)C(=O)[C@@]3(O)C(O)=C1C2=O` [Minocycline, reference compound]: the IC50 in the assay on HTB 16 is 5.8 µg/mL (≈ 12.7 µM); in the assay on A2780/DDP, 6.1 µg/mL (≈ 13.3 µM); in assay [1], around 50 µg/mL (≈ 109 µM); with A2780S, 6.1 µg/mL (≈ 13.3 µM); in the assay on Human Tumor Cell lines, 6.6 µg/mL (≈ 14.4 µM); with MIP, 6.1 µg/mL (≈ 13.3 µM).

(Values after patent US5563130A, “Methods for inhibiting angiogenesis, proliferation of endothelial or tumor cells and tumor growth” (American Cyanamid Company, priority 1994, dated 1996).)
